Experimental data: patent US20030130180A1, “Utilization of an aminopeptidase inhibitor” (priority 2000, published 2003)

Test system: Karpas cells
Assay: Detection of surface protein combinations of the protein network on untreated (V1) and actinonin-treated (V2) Karpas cells
Assay type: cell-based
Conditions: for V2 no. of cells: actinonin-treated Karpas cells
Text: Principally, detecting of the surface protein combinations may comprise procedural steps of an automated method for determining molecular classes, molecular groups or molecular parts in a solid or liquid object according to DE 197 09 348 C. In these steps, surface proteins may be examined and measured in one and the same object, i.e. in a sample of immune cells and/or tumor cells for example, by sequentially applying reagent solutions Yn (n=1,2,3, . . . N) by means of an automated apparatus, said procedural steps being: I. taking a first reagent solution Y1 from a vessel containing the reagent solution, II. applying said reagent solution Y1 to the object which is on an object slide, III. allowing the reagent solution to react for an automatically set period of time, IV. recording at least one individual labeling pattern of the object previously labeled with said first reagent solution Y1, V. repeating steps I-IV by applying said first reagent solution Y1 or a second reagent solution Y2 or a mixture of said first and second reagent solutions, and VI. repeating steps I to V with further reagent solutions Yn (n=2,3, . . . N) or a mixture thereof and whereby the labeling distribution patterns obtained in each cycle of the method are turned into a complex molecular combination pattern of the object to be examined by computer-aided image overlay. From this combination pattern, information may be gained on the presence of the above mentioned proteins, thus also allowing detection of the surface protein combinations, if the reagent solutions used contain labeled substances directed against the proteins in question. In numerous examinations, it was possible to identify the 30 cell surface proteins already listed above which belong to a specific protein network controlling the early polarization stages of tumor cells and immune cells. In a further examination, surface protein combinations of this protein network of Karpas cells were detected, both in untreated form and after treatment with the aminopeptidase inhibitor actinonin. For this purpose, two groups V1 and V2 of Karpas cells were formed, with the cells of group Vl remaining untreated, while the cells of group V2 were treated with actinonin. Table 2 lists those surface protein combinations which are present both in the actinonin-treated cells and in the untreated cells. However, this table and the further tables 3 and 4 only give examples of 18 of the 30 proteins, with the detected proteins being designated 1 and the non-detected proteins being designated 0. The proteins are continuously numbered 1 to 18, with the nomenclature being notable from table 1. [table] The cell numbers stated in tables 2 to 4 refer to each 1,000 cells examined in groups V1 and V2. Table 3 lists the surface protein combinations which only occur in the untreated Karpas cells and are never found in the actinonin-treated Karpas cells. The number of protein combinations listed in this table 3 amounts to 131. Finally, table 4 exclusively lists those surface protein combinations which occur exclusively in the actinonin-treated Karpas cells. It may be gathered from tables 2 to 4 that, if one examines merely 18 proteins of the 30 proteins, a total of 394 different surface protein combinations will occur, with a total of 334 different combinations occurring in the untreated cells and a total of 263 different combinations being detected in the treated cells.

Q: Which results are given for `CCCCC[C@H](CC(=O)NO)C(=O)N[C@H](C(=O)N1CCC[C@H]1CO)C(C)C` [actinonin]?
A: V2 No. of cells In 1/1000 (actinonin-treated Karpas cells (V2), surface protein combination No. 118, binary code 000100010100000000): 0.0 1/1000; V2 No. of cells In 1/1000 (actinonin-treated Karpas cells (V2), surface protein combination No. 119, binary code 000100010001011000): 0.0 1/1000; V2 No. of cells In 1/1000 (actinonin-treated Karpas cells (V2), surface protein combination No. 120, binary code 000100001001001000): 0.0 1/1000; V2 No. of cells In 1/1000 (actinonin-treated Karpas cells (V2), surface protein combination No. 121, binary code 000100000101001000): 0.0 1/1000; V2 No. of cells In 1/1000 (actinonin-treated Karpas cells (V2), surface protein combination No. 122, binary code 000100000101000000): 0.0 1/1000; V2 No. of cells In 1/1000 (actinonin-treated Karpas cells (V2), surface protein combination No. 123, binary code 000100000011000000): 0.0 1/1000; V2 No. of cells In 1/1000 (actinonin-treated Karpas cells (V2), surface protein combination No. 124, binary code 000000011101011000): 0.0 1/1000; V2 No. of cells In 1/1000 (actinonin-treated Karpas cells (V2), surface protein combination No. 125, binary code 000000011000001000): 0.0 1/1000; V2 No. of cells In 1/1000 (actinonin-treated Karpas cells (V2), surface protein combination No. 126, binary code 000000010100000100): 0.0 1/1000; V2 No. of cells In 1/1000 (actinonin-treated Karpas cells (V2), surface protein combination No. 127, binary code 000000010000011000): 0.0 1/1000; V2 No. of cells In 1/1000 (actinonin-treated Karpas cells (V2), surface protein combination No. 128, binary code 000000010000000100): 0.0 1/1000; V2 No. of cells In 1/1000 (actinonin-treated Karpas cells (V2), surface protein combination No. 129, binary code 000000001011000000): 0.0 1/1000; V2 No. of cells In 1/1000 (actinonin-treated Karpas cells (V2), surface protein combination No. 130, binary code 000000000001001100): 0.0 1/1000; V2 No. of cells In 1/1000 (actinonin-treated Karpas cells (V2), surface protein combination No. 131, binary code 000000000001000100): 0.0 1/1000; V2 no. of cells In 1/1OOO, total (actinonin-treated Karpas cells (V2), total over all 203 protein combinations of Table 2): 990.9 1/1OOO; V2 No. of cells In 1/1000, total (actinonin-treated Karpas cells (V2), total over the 131 surface protein combinations of Table 3): 0 1/1000; V2 no. of cells (protein code No. 1, proteins 1-18 binary 000000000000000000): 153.2 1/1OOO; V2 no. of cells (protein code No. 2, proteins 1-18 binary 001000010101001000): 91.9 1/1OOO; V2 no. of cells (protein code No. 3, proteins 1-18 binary 001000010001000000): 57.6 1/1OOO; V2 no. of cells (protein code No. 4, proteins 1-18 binary 000000010001000000): 62.2 1/1OOO; V2 no. of cells (protein code No. 5, proteins 1-18 binary 001000010001001000): 37.9 1/1OOO; V2 no. of cells (protein code No. 6, proteins 1-18 binary 001000010101000000): 44.3 1/1OOO; V2 no. of cells (protein code No. 7, proteins 1-18 binary 001100010101001000): 37.6 1/1OOO; V2 no. of cells (protein code No. 8, proteins 1-18 binary 000000010000000000): 41.8 1/1OOO; V2 no. of cells (protein code No. 9, proteins 1-18 binary 001000010111001000): 31.4 1/1OOO; V2 no. of cells (protein code No. 10, proteins 1-18 binary 001100010111011000): 29.7 1/1OOO; V2 no. of cells (protein code No. 11, proteins 1-18 binary 000000000001000000): 29.3 1/1OOO; V2 no. of cells (protein code No. 12, proteins 1-18 binary 001100010111001000): 24.2 1/1OOO; V2 no. of cells (protein code No. 13, proteins 1-18 binary 001000010011001000): 15.4 1/1OOO; V2 no. of cells (protein code No. 14, proteins 1-18 binary 000000010101000000): 22.3 1/1OOO; V2 no. of cells (protein code No. 15, proteins 1-18 binary 101100010111011000): 17.3 1/1OOO; V2 no. of cells (protein code No. 16, proteins 1-18 binary 001000010111011000): 15.0 1/1OOO; V2 no. of cells (protein code No. 17, proteins 1-18 binary 001000010101011000): 15.5 1/1OOO; V2 no. of cells (protein code No. 18, proteins 1-18 binary 001100010101011000): 9.7 1/1OOO; V2 no. of cells (protein code No. 19, proteins 1-18 binary 000000010101001000): 13.4 1/1OOO; V2 no. of cells (protein code No. 20, proteins 1-18 binary 000000000100000000): 14.5 1/1OOO; V2 no. of cells (protein code No. 21, proteins 1-18 binary 001100010001001000): 6.3 1/1OOO; V2 no. of cells (protein code No. 22, proteins 1-18 binary 001000010011000000): 6.7 1/1OOO; V2 no. of cells (protein code No. 23 (second line so numbered), proteins 1-18 binary 000000000101000000): 11.0 1/1OOO; V2 no. of cells (protein code No. 23, proteins 1-18 binary 001000000001000000): 7.4 1/1OOO; V2 no. of cells (protein code No. 24, proteins 1-18 binary 001000010000000000): 5.7 1/1OOO; V2 no. of cells (protein code No. 25, proteins 1-18 binary 000000000000001000): 7.3 1/1OOO; V2 no. of cells (protein code No. 27, proteins 1-18 binary 010000001100000000): 7.5 1/1OOO; V2 no. of cells (protein code No. 28, proteins 1-18 binary 000000010100000000): 8.9 1/1OOO; V2 no. of cells (protein code No. 29, proteins 1-18 binary 000000010001001000): 7.0 1/1OOO; V2 no. of cells (protein code No. 30, proteins 1-18 binary 001100010011001000): 4.0 1/1OOO; V2 no. of cells (protein code No. 31, proteins 1-18 binary 101000010111011000): 2.8 1/1OOO; V2 no. of cells (protein code No. 32, proteins 1-18 binary 000000001000000000): 6.1 1/1OOO; V2 no. of cells (protein code No. 33, proteins 1-18 binary 001000010111000000): 5.3 1/1OOO; V2 no. of cells (protein code No. 34, proteins 1-18 binary 001000010011011000): 3.2 1/1OOO; V2 no. of cells (protein code No. 35, proteins 1-18 binary 001000010001011000): 4.8 1/1OOO; V2 no. of cells (protein code No. 37, proteins 1-18 binary 010000001100001000): 3.9 1/1OOO; V2 no. of cells (protein code No. 38 (first line so numbered), proteins 1-18 binary 000000001100000000): 5.4 1/1OOO; V2 no. of cells (protein code No. 38 (second line so numbered), proteins 1-18 binary 001000011101001000): 4.3 1/1OOO; V2 no. of cells (protein code No. 39, proteins 1-18 binary 000000010011000000): 2.5 1/1OOO; V2 no. of cells (protein code No. 40, proteins 1-18 binary 001000000101000000): 4.7 1/1OOO; V2 no. of cells (protein code No. 41, proteins 1-18 binary 001100010011011000): 4.0 1/1OOO; V2 no. of cells (protein code No. 42, proteins 1-18 binary 001100010101000000): 0.8 1/1OOO; V2 no. of cells (protein code No. 43, proteins 1-18 binary 001000000000000000): 2.8 1/1OOO; V2 no. of cells (protein code No. 44, proteins 1-18 binary 001000011101000000): 3.7 1/1OOO; V2 no. of cells (protein code No. 45, proteins 1-18 binary 001100010001000000): 0.6 1/1OOO; V2 no. of cells (protein code No. 46, proteins 1-18 binary 001000011001000000): 2.5 1/1OOO; V2 no. of cells (protein code No. 47, proteins 1-18 binary 010000001100001100): 2.2 1/1OOO; V2 no. of cells (protein code No. 48, proteins 1-18 binary 101100010101011000): 2.2 1/1OOO; V2 no. of cells (protein code No. 49, proteins 1-18 binary 001000010100000000): 2.7 1/1OOO; V2 no. of cells (protein code No. 50, proteins 1-18 binary 011000011101001000): 2.4 1/1OOO; V2 no. of cells (protein code No. 51, proteins 1-18 binary 001000011111001000): 2.0 1/1OOO; V2 no. of cells (protein code No. 52, proteins 1-18 binary 001100010001011000): 1.0 1/1OOO; V2 no. of cells (protein code No. 53, proteins 1-18 binary 001000010000001000): 1.0 1/1OOO
